Test results from patent US20120016019A1, “PHARMACEUTICAL COMPOSITION FOR TREATING OR PREVENTING CANCER” (priority 2010, published 2012).
Values joined by “and” are separate entries in the source; they are usually repeats but may differ in a detail not shown here. Equal entries are not always repeated. Where two headings read alike, the source gives them in different places.

Legend:
Type in all cases: cell-based
[1] = system: HeLa; assay: Cell counts, HeLa
Procedure: (§1) As a result, LC-50 curves were generated in the 1st week.
(§2) In the 2nd plate, 7 d of the 1st week (LC-50) is the same as 0 h of the 2nd week (recovery).
(§3) At 0 h of the 2nd week, medium was exchanged with untreated medium for the remainder of the experiment. The untreated controls were not measured in the 2nd week (recovery) due to overconfluence by the end of the 1st week. As a result, Recovery curves were generated in the 2nd week.

[2] = system: TT; assay: Cell counts, TT
Procedure: as §1, §2
(§4) At 0 h of the 2nd week, medium was exchanged with untreated medium for the remainder of the experiment. […] As a result, Recovery curves were generated in the 2nd week.

[3] = system: BJ; details: for cell counts, Mean value / cell counts: BJ; for cell counts: single count
Procedure: as §1, §2, §3
(15) BJ—Normal Fibroblasts BJ cells were derived from normal foreskin of a newborn, and have a long lifespan in comparison with other normal human fibroblast cells. Although they have the capacity to proliferate to a maximum of 72 population doublings before the onset of senescence, they are telomerase negative.

[4] = system: CCD-1074sk; details: for cell counts: single count
Procedure: as §1, §2, §4

CC(=O)O[C@H]1C(=O)[C@@]2(C)[C@H]([C@H](OC(=O)c3ccccc3)[C@]3(O)C[C@H](OC(=O)[C@H](O)[C@@H](NC(=O)c4ccccc4)c4ccccc4)C(C)=C1C3(C)C)[C@]1(OC(C)=O)CO[C@@H]1C[C@@H]2O [Taxol]
cell counts ([1]; 1st week (LC50), 7 d): 36000 and 34000 and 32000
cell counts, Mean value ([1]; 1st week (LC50), 7 d): 34000
cell counts ([1]; 2nd week (recovery), 0 h): 31000 and 34000 and 35000
cell counts, Mean value ([1]; 2nd week (recovery), 0 h): 33333
cell counts, Mean value ([1]; 2nd week (recovery), 24 h): 23333
cell counts ([1]; 2nd week (recovery), 48 h): 12000 and 23500 and 22000
cell counts, Mean value ([1]; 2nd week (recovery), 48 h): 19167
cell counts ([1]; 2nd week (recovery), 4 d): 22000 and 18000 and 13000
cell counts, Mean value ([1]; 2nd week (recovery), 4 d): 17667
cell counts ([1]; 2nd week (recovery), 7 d): 18000
cell counts, Mean value ([1]; 2nd week (recovery), 7 d): 18000
cell counts ([2]; 1st week (LC50), 0 h): 133000 and 117500 and 123000
cell counts, Mean value ([2]; 1st week (LC50), 0 h): 124500
cell counts, Mean value ([2]; 1st week (LC50), 24 h): 106333
cell counts ([2]; 1st week (LC50), 48 h): 175000 and 109000 and 114000
cell counts, Mean value ([2]; 1st week (LC50), 48 h): 132667
cell counts ([2]; 1st week (LC50), 4 d): 84000 and 72500 and 56000
cell counts, Mean value ([2]; 1st week (LC50), 4 d): 70833
cell counts ([2]; 1st week (LC50), 7 d): 35000 and 26000
cell counts, Mean value ([2]; 1st week (LC50), 7 d): 32000
cell counts, Mean value ([2]; 2nd week (recovery), 0 h, mean value): 44000
cell counts ([2]; 2nd week (recovery), 0 h, single count): 44000 and 53000 and 35000
cell counts, Mean value ([2]; 2nd week (recovery), 24 h, mean value): 17667
cell counts, Mean value ([2]; 2nd week (recovery), 48 h, mean value): 30667
cell counts ([2]; 2nd week (recovery), 48 h, single count): 35000 and 31000 and 26000
cell counts, Mean value ([2]; 2nd week (recovery), 4 d, mean value): 16667
cell counts ([2]; 2nd week (recovery), 4 d, single count): 15000 and 12500
cell counts, Mean value ([2]; 2nd week (recovery), 7 d, mean value): 11500
appearance of normal cells (microscopy) [3]: fully destroyed
proliferation of normal cells [3]: decreased due to stress by toxicity of Taxol
cell counts, Mean value ([3]; 1st week (LC50), 0 h): 16333
cell counts ([3]; 1st week (LC50), 0 h): 14000 and 17000 and 18000
cell counts, Mean value ([3]; 1st week (LC50), 12 h): 11000
cell counts ([3]; 1st week (LC50), 12 h): 12000 and 9000
cell counts, Mean value ([3]; 1st week (LC50), 24 h): 12667
cell counts ([3]; 1st week (LC50), 24 h): 10000 and 17000 and 11000
cell counts, Mean value ([3]; 1st week (LC50), 48 h): 11667
cell counts ([3]; 1st week (LC50), 48 h): 14000 and 10000 and 11000
cell counts, Mean value ([3]; 1st week (LC50), 4 d): 6333
cell counts ([3]; 1st week (LC50), 4 d): 9000 and 5000
cell counts, Mean value ([3]; 1st week (LC50), 7 d): 6667
cell counts, Mean value ([3]; 2nd week (recovery), 0 h): 19
cell counts, Mean value ([3]; 2nd week (recovery), 24 h): 8
cell counts ([3]; 2nd week (recovery), 24 h): 7 and 9
cell counts, Mean value ([3]; 2nd week (recovery), 48 h): 13
cell counts ([3]; 2nd week (recovery), 48 h): 8 and 14 and 16
cell counts, Mean value ([3]; 2nd week (recovery), 4 d): 11
cell counts, Mean value ([3]; 2nd week (recovery), 7 d): 28
cell counts ([3]; 2nd week (recovery), 7 d): 35 and 29 and 19
cell counts, Mean value ([4]; 1st week (LC50), 0 h): 8000
cell counts ([4]; 1st week (LC50), 0 h): 9000 and 7000
cell counts, Mean value ([4]; 1st week (LC50), 24 h): 15500
cell counts ([4]; 1st week (LC50), 24 h): 15000 and 16000
cell counts, Mean value ([4]; 1st week (LC50), 48 h): 10500
cell counts ([4]; 1st week (LC50), 48 h): 10000 and 11000
cell counts, Mean value ([4]; 1st week (LC50), 4 d): 4500
cell counts ([4]; 1st week (LC50), 4 d): 6000 and 3000
cell counts, Mean value ([4]; 1st week (LC50), 7 d): 11500
cell counts ([4]; 1st week (LC50), 7 d): 11000 and 12000
cell counts, Mean value ([4]; 2nd week (recovery), 0 h): 10500
cell counts ([4]; 2nd week (recovery), 0 h): 10000 and 11000
cell counts, Mean value ([4]; 2nd week (recovery), 48 h): 8000
cell counts ([4]; 2nd week (recovery), 48 h): 10000 and 6000
cell counts, Mean value ([4]; 2nd week (recovery), 4 d): 5500
cell counts ([4]; 2nd week (recovery), 4 d): 4000 and 7000
cell counts ([4]; 2nd week (recovery), 7 d): 18000 and 9000
